Laboratory results reported in publication PMC6273715, “Synthesis and Evaluation of New Benzodioxole- Based Thiosemicarbazone Derivatives as Potential Antitumor Agents” (Molecules, 2016).

Assays:
[1] = target: BuChE (Homo sapiens, UniProt P06276); assay: BuChE inhibition, modified Ellman's method; type: biochemical; settings: for IC50: tested at 5–80 μg/mL
[2] = target: AChE (Electrophorus electricus, UniProt O42275); assay: biochemical; type: biochemical; settings: for IC50: tested at 5–80 μg/mL
Sequence of AChE (O42275 24-633): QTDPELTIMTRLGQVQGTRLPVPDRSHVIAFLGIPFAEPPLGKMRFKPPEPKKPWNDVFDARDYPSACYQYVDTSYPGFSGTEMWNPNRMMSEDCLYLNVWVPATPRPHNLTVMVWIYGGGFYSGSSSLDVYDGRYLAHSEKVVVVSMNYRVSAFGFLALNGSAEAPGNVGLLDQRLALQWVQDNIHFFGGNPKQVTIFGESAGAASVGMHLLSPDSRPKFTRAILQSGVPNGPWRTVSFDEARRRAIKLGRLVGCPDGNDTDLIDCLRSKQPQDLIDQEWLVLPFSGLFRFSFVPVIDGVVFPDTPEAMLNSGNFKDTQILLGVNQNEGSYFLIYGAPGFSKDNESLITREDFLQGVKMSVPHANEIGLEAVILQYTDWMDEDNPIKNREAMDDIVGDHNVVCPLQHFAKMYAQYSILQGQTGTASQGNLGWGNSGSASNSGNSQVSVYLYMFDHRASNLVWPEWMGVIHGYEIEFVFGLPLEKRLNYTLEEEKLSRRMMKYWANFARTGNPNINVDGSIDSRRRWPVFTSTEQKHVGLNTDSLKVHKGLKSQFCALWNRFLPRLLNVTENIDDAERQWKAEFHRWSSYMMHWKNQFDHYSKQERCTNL

[3] = system: C6 rat glioma cells; assay: MTT cytotoxicity assay, C6; type: cell-based; settings: for IC50: Rattus norvegicus, C6, MTT, 24 h, read-out: IC50 C6 Cell Line; for cytotoxicity (in words): C6, at the concentrations used
Experimental: (§1) C6 Rat glioma and NIH/3T3 mouse embryonic fibroblast cells were incubated in Dulbecco’s Modified Eagle’s Medium (DMEM) (Sigma, Deisenhofen, Germany) supplemented with 10% fetal calf serum (Gibco, Paisley, UK). A549 Human lung adenocarcinoma cells were incubated in 90% RPMI supplemented with 10% fetal bovine serum (Gibco). […] Exponentially growing cells were plated at 2 × 10^4 cells/mL into 96-well microtiter tissue culture plates (Nunc, Roskilde, Denmark) and incubated for 24 h before the addition of the drugs (the optimum cell number for cytotoxicity assays was determined in preliminary experiments).
(§2) The level of cellular 3-(4,5-dimethylthiazol-2-yl)-2,5-diphenyltetrazolium bromide (MTT) (Sigma) reduction was quantified as previously described in the literature with small modifications. […] At the end of this period, MTT was added to a final concentration of 0.5 mg/mL and the cells were incubated for 4 h at 37 °C. After the medium was removed, the formazan crystals formed by MTT metabolism were solubilized by addition of 200 µL DMSO to each well and absorbance was read at 540 nm with a microtiter plate spectrophotometer (Bio-Tek Plate Reader, Winooski, VT, USA). Every concentration was repeated in three wells.

[4] = system: A549 human lung adenocarcinoma cells; assay: MTT cytotoxicity assay, A549; type: cell-based; settings: for IC50: Homo sapiens, A549, MTT, 24 h, read-out: IC50 A549 Cell Line; for cytotoxicity (in words): A549, at the concentrations used
Experimental: as §1, §2

[5] = system: C6 cells; assay: DNA synthesis inhibition (BrdU ELISA), C6; type: cell-based, rat; settings: C6, compound at its IC50, 24 h
Experimental: (§3) The immunostaining procedure was carried out with specific anti-BrdU antibodies in the S-phase of the cell cycle. DNA synthesis inhibitory effects of all compounds were evaluated for 24 h. A549 and C6 cell lines were incubated with three different concentrations of the compounds that were determined according to their IC50 values. Cisplatin was used as a positive control.
(§4) Analysis of DNA synthesis was measured by a Cell Proliferation ELISA, BrdU (colorimetric) kit (Roche, Mannheim, Germany). This immunostaining procedure is based on measuring the incorporation of bromodeoxyuridine (BrdU) into nuclear DNA in place of thymidine during the S-phase of the cell cycle using specific anti-BrdU antibodies. […] Firstly cells were seeded into 96 well flat-bottomed microtiter plates at a density of 2 × 10^3. […] Microtiter plates were incubated at 37 °C in a 5% CO2/95% air humidified atmosphere for 24 h. Cells were labeled with 10 µL BrdU solution for 2 h and then fixed. Anti-BrdU-POD (100 µL) was added and incubated for 90 min. Finally, wells were washed with BPS and cells were incubated with substrate. Absorbance of the samples was measured with an ELX808-IU Bio-Tek apparatus at 492 nm. All experiments were repeated two times. For each compound dose, dublicate wells were used.

[6] = system: NIH/3T3 mouse embryonic fibroblast cells; assay: MTT cytotoxicity assay, NIH/3T3; type: cell-based; settings: NIH3T3, 24 h, read-out: IC50 NIH/3T3 Cell Line
Experimental: C6 Rat glioma and NIH/3T3 mouse embryonic fibroblast cells were incubated in Dulbecco’s Modified Eagle’s Medium (DMEM) (Sigma, Deisenhofen, Germany) supplemented with 10% fetal calf serum (Gibco, Paisley, UK). A549 Human lung adenocarcinoma cells were incubated in 90% RPMI supplemented with 10% fetal bovine serum (Gibco). All media were supplemented with 100 IU/mL penicillin-streptomycin (Gibco) and cells were incubated at 37 °C in a humidified atmosphere of 95% air and 5% CO2. Exponentially growing cells were plated at 2 × 10^4 cells/mL into 96-well microtiter tissue culture plates (Nunc, Roskilde, Denmark) and incubated for 24 h before the addition of the drugs (the optimum cell number for cytotoxicity assays was determined in preliminary experiments). The stock solutions of the compounds were prepared in dimethyl sulfoxide (DMSO; Sigma Aldrich, Poole, UK) and further dilutions were made with fresh culture medium (the concentration of DMSO in the final culture medium was <0.1% which had no effect on the cell viability).
as §2

[7] = system: A549 cells; assay: DNA synthesis inhibition (BrdU ELISA), A549; type: cell-based, human; settings: A549, compound at its IC50, 24 h
Experimental: as §3, §4

Sequence of BuChE (P06276 29-602): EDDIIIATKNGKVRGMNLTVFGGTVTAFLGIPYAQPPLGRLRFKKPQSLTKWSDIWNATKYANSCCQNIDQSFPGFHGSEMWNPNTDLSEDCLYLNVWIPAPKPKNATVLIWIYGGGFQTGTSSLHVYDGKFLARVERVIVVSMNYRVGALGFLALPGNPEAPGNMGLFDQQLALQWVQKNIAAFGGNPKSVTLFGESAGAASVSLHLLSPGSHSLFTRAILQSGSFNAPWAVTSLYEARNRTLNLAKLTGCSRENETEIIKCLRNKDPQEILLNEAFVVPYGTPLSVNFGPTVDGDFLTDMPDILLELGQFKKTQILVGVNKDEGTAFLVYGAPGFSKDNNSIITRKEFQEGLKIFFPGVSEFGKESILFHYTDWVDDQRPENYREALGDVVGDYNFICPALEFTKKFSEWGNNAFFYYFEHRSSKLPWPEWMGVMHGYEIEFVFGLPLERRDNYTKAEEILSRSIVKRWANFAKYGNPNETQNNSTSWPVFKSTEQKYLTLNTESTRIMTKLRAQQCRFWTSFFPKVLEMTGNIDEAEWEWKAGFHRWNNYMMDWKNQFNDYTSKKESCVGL

Q: `N#Cc1ccc(C=NNC(=S)Nc2ccc3c(c2)OCO3)cc1` [Compound 3, 4-(1,3-Benzodioxole-5-yl)-1-(4-cyanobenzylidene)thiosemicarbazide] was tested. Which IC50 [1] did it give?
A: > 213 µM

Q: And the “inhibitory activity against AChE (in words)” value [2]?
A: did not show any inhibitory activity

Q: What about the IC50 [2] of the same compound?
A: > 213 µM

Q: And the IC50 [3]?
A: 49.3 ± 1.15 µM

Q: What about the IC50 [4] of the same compound?
A: 28 ± 1 µM

Q: What about the “DNA synthesis inhibition percent” value [5] of the same compound?
A: 54.99%

Q: And the IC50 [6]?
A: > 154 µM

Q: What about the “DNA synthesis inhibition percent” value [7] of the same compound?
A: 53.24%

Q: Which “inhibition on BuChE (in words)” value [1] does the source give for `S=C(NN=Cc1ccc(Cl)cc1)Nc1ccc2c(c1)OCO2` [Compound 7, 4-(1,3-Benzodioxole-5-yl)-1-(4-chlorobenzylidene)thiosemicarbazide] here?
A: weak inhibition

Q: And the IC50 [1]?
A: > 240 µM

Q: What about the IC50 [2] of the same compound?
A: > 240 µM

Q: And the “cytotoxicity (in words)” value [3]?
A: no significant cytotoxicity

Q: And the IC50 [3]?
A: > 150 µM

Q: And the “cytotoxicity (in words)” value [4]?
A: no significant cytotoxicity

Q: And the IC50 [4]?
A: > 150 µM

Q: What about the IC50 [6] of the same compound?
A: 9.5 ± 2.5 µM

Q: `CN(C)c1ccc(C=NNC(=S)Nc2ccc3c(c2)OCO3)cc1` [Compound 4, 4-(1,3-Benzodioxole-5-yl)-1-(4-dimethylaminobenzylidene)thiosemicarbazide] was tested. Which IC50 [1] did it give?
A: > 213 µM

Q: And the IC50 [2]?
A: > 234 µM

Q: And the “cytotoxicity (in words)” value [3]?
A: no significant cytotoxicity

Q: What about the IC50 [3] of the same compound?
A: > 146 µM

Q: And the “cytotoxicity (in words)” value [4]?
A: no significant cytotoxicity

Q: And the IC50 [4]?
A: > 146 µM

Q: And the IC50 [6]?
A: > 146 µM

Q: For `S=C(NN=Cc1ccc(Cl)c(Cl)c1)Nc1ccc2c(c1)OCO2` [Compound 9, 4-(1,3-Benzodioxole-5-yl)-1-(3,4-dichlorobenzylidene)thiosemicarbazide], which IC50 [1] is on record?
A: > 213 µM

Q: What about the IC50 [2] of the same compound?
A: 205 ± 5 µM

Q: What about the IC50 [3] of the same compound?
A: 25.3 ± 1.53 µM

Q: What about the IC50 [4] of the same compound?
A: 51.5 ± 4.95 µM

Q: What about the “DNA synthesis inhibition percent” value [5] of the same compound?
A: 37.71%

Q: And the IC50 [6]?
A: > 136 µM

Q: What about the “DNA synthesis inhibition percent” value [7] of the same compound?
A: 27.3%

Q: How did the “inhibition on BuChE (in words)” value [1] turn out when `S=C(NN=Cc1ccc(Br)cc1)Nc1ccc2c(c1)OCO2` [Compound 8, 4-(1,3-Benzodioxole-5-yl)-1-(4-bromobenzylidene)thiosemicarbazide] was run?
A: weak inhibition

Q: What about the IC50 [1] of the same compound?
A: > 212 µM

Q: And the IC50 [2]?
A: > 212 µM

Q: And the “cytotoxicity (in words)” value [3]?
A: no significant cytotoxicity

Q: What about the IC50 [3] of the same compound?
A: > 132 µM

Q: And the “cytotoxicity (in words)” value [4]?
A: no significant cytotoxicity

Q: And the IC50 [4]?
A: > 132 µM

Q: What about the IC50 [6] of the same compound?
A: 9.16 ± 2.47 µM

Q: How did the IC50 [1] turn out when `S=C(NN=Cc1ccccc1)Nc1ccc2c(c1)OCO2` [Compound 1, 4-(1,3-Benzodioxole-5-yl)-1-(benzylidene)thiosemicarbazide] was run?
A: > 213 µM

Q: And the IC50 [2]?
A: > 267 µM

Q: And the “cytotoxicity (in words)” value [3]?
A: no significant cytotoxicity

Q: What about the IC50 [3] of the same compound?
A: > 167 µM

Q: And the “cytotoxicity (in words)” value [4]?
A: no significant cytotoxicity

Q: What about the IC50 [4] of the same compound?
A: > 167 µM

Q: What about the IC50 [6] of the same compound?
A: > 167 µM

Q: `Fc1ccc(C=NNC(=S)Nc2ccc3c(c2)OCO3)cc1` [Compound 6, 4-(1,3-Benzodioxole-5-yl)-1-(4-fluorobenzylidene)thiosemicarbazide] was tested. Which IC50 [1] did it give?
A: > 213 µM

Q: And the IC50 [2]?
A: > 252 µM

Q: What about the “cytotoxicity (in words)” value [3] of the same compound?
A: no significant cytotoxicity

Q: And the IC50 [3]?
A: > 158 µM

Q: And the “cytotoxicity (in words)” value [4]?
A: no significant cytotoxicity

Q: And the IC50 [4]?
A: > 158 µM

Q: What about the IC50 [6] of the same compound?
A: 2.87 ± 0.05 µM
